Assay results: ChEMBL document CHEMBL1155237, “Selective inhibitors of the mutant B-Raf pathway: discovery of a potent and orally bioavailable aminoisoquinoline” (J Med Chem, 2009)

Experiments:
[1] = Volume of distribution at steady state in Sprague-Dawley rat at 2 mg/kg, iv and 5 mg/kg, po; format: ADME, organism-based; conditions: in vivo, read-out: Vdss
[2] = Elimination half life in Sprague-Dawley rat at 2 mg/kg, iv and 5 mg/kg, po; format: ADME, organism-based; conditions: in vivo, read-out: beta t1/2 (converted)
[3] = Oral bioavailability in Sprague-Dawley rat at 5 mg/kg; format: ADME, organism-based; conditions: in vivo
[4] = target: Mitogen-activated protein kinase 14 (Homo sapiens, UniProt Q16539); experiment: Inhibition of p38alpha
Sequence of Mitogen-activated protein kinase 14 (Q16539 whole entry): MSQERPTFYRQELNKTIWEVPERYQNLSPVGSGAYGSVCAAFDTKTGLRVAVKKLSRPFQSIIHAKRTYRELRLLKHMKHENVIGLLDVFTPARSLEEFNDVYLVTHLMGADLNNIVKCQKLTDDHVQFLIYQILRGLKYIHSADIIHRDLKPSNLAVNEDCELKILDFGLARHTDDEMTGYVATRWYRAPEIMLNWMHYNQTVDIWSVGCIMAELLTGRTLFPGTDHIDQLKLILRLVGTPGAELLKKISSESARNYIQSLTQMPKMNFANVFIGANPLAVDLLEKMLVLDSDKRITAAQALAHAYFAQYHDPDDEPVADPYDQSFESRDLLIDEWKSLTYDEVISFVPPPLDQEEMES

[5] = target: Serine/threonine-protein kinase B-raf (Homo sapiens, UniProt P15056, V600E); experiment: Inhibition of recombinant Braf V600E mutant
Sequence of Serine/threonine-protein kinase B-raf (P15056 2-766 V600E limits assumed): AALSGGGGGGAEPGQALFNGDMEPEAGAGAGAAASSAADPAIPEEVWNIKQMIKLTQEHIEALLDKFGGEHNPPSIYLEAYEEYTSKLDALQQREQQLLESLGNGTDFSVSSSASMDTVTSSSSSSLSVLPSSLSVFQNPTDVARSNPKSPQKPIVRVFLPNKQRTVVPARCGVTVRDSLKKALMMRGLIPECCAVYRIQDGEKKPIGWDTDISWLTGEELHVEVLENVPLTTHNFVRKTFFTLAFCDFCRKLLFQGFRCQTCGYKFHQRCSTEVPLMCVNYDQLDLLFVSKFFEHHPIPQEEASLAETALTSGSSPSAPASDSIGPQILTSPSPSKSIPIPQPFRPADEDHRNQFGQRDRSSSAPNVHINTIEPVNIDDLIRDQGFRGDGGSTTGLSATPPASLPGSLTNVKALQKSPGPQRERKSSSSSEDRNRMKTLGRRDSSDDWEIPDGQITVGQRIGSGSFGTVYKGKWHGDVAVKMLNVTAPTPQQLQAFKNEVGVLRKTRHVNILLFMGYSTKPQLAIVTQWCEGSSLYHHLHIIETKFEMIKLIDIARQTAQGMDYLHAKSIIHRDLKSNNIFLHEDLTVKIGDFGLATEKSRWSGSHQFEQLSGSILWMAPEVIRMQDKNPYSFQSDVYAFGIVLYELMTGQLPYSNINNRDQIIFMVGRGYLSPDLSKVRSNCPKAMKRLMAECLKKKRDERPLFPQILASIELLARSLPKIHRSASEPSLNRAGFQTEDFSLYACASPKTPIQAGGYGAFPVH

[6] = Clearance in Sprague-Dawley rat at 2 mg/kg, iv and 5 mg/kg, po; format: ADME, organism-based; conditions: in vivo
[7] = target: Vascular endothelial growth factor receptor 2 (Homo sapiens, UniProt P35968); experiment: Inhibition of KDR
Sequence of Vascular endothelial growth factor receptor 2 (P35968 whole entry): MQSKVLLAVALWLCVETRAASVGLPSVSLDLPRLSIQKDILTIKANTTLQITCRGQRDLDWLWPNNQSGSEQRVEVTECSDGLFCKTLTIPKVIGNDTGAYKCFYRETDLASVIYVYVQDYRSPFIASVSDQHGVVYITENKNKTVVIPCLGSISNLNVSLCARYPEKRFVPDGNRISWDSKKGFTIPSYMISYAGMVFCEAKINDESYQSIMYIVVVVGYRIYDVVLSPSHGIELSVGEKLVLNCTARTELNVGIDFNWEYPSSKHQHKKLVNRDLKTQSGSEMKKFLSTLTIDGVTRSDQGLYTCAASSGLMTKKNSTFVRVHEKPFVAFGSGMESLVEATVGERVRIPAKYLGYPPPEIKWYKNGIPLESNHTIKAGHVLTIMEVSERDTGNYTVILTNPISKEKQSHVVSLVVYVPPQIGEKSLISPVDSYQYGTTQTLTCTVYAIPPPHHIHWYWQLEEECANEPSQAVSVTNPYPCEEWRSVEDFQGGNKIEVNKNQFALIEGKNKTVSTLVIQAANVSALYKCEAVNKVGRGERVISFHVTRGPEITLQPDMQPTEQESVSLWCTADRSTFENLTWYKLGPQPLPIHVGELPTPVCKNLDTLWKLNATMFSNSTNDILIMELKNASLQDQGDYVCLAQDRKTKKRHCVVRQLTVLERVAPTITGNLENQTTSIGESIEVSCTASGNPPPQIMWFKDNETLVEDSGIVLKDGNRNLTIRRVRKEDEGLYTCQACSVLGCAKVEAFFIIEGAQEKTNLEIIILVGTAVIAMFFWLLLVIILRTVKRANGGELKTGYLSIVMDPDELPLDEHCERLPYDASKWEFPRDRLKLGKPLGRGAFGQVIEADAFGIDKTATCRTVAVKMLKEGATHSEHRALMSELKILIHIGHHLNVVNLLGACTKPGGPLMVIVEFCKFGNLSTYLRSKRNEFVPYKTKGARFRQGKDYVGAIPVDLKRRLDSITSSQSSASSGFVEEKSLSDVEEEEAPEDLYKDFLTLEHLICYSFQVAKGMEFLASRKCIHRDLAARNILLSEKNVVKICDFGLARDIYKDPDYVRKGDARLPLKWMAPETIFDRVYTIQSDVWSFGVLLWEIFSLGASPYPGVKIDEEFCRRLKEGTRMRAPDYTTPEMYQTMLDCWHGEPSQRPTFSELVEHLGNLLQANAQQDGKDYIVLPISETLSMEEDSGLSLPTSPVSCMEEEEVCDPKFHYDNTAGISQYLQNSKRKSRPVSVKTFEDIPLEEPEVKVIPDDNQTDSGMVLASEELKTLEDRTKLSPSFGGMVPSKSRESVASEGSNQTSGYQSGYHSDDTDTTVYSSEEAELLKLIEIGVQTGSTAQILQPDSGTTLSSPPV

Mus musculus [8] = experiment: Inhibition of ERK phosphorylation in human A375 SQ2 cells xenografted CD1 mouse at 20 mg/kg, po bid after 6 hrs; format: functional; conditions: CD1, A375-SQ2, 6 h
[9] = target: Tyrosine-protein kinase Lck (Homo sapiens, UniProt P06239); experiment: Inhibition of LCK
Sequence of Tyrosine-protein kinase Lck (P06239 whole entry): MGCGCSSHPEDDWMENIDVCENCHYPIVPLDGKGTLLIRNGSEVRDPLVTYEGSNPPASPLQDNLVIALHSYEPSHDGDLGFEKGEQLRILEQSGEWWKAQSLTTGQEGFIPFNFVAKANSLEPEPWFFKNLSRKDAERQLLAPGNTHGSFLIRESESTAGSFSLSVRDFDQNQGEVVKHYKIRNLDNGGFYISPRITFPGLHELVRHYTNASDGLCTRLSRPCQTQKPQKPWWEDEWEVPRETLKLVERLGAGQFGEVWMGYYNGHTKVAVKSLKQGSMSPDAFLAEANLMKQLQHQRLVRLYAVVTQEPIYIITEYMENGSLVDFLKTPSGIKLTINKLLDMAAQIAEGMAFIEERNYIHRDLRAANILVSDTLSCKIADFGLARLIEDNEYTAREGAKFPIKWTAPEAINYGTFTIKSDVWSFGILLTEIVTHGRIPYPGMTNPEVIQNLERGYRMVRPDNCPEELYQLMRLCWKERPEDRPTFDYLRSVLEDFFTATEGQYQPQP

Angiopoietin-1 receptor = Angiopoietin-1 receptor (Homo sapiens, UniProt Q02763); experiment: Inhibition of Tie2
Sequence of Angiopoietin-1 receptor (Q02763 whole entry): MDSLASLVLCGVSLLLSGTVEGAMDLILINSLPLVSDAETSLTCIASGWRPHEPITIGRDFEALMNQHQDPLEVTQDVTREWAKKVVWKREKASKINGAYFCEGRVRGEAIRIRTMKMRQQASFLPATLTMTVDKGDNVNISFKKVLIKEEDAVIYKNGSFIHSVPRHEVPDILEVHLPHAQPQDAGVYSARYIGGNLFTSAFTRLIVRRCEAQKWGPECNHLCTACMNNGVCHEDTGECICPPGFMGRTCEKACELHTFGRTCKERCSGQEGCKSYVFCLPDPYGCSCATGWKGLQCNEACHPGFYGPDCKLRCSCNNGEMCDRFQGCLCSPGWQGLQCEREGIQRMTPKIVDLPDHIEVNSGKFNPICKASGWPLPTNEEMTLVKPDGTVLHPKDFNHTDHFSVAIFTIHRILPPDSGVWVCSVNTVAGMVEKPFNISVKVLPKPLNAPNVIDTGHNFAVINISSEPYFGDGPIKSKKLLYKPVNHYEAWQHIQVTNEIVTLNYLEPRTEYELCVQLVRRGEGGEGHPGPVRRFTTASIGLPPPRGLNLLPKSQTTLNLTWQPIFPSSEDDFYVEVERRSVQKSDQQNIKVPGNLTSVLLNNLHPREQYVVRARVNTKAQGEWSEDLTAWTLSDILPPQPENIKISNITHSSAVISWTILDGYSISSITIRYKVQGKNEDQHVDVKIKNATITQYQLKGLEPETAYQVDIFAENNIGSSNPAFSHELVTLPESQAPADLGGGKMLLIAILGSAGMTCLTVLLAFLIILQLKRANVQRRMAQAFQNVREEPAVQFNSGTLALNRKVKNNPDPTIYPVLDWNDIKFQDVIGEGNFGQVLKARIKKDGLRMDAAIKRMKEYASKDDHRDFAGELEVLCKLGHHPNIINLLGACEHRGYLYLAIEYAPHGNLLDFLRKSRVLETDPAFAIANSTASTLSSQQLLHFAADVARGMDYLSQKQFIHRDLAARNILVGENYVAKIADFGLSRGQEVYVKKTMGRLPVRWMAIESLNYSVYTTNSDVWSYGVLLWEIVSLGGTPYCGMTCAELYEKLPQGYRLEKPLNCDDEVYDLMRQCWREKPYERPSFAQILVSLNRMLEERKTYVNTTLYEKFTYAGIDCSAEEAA

A-375 [10] = experiment: Antitumor activity against human A375 SQ2 cells xenografted in CD1 mouse assessed as regression of tumor growth at 35 mg/kg, po bid for 14 days; format: functional
A-375 [11] = experiment: Antitumor activity against human A375 SQ2 cells xenografted in CD1 mouse assessed as inhibition of tumor growth at 20 mg/kg, po bid for 14 days; format: functional; parameters: Activity: scale not given: the % may be the effect or the level left; conditions: for inhibition in vivo at 20 mg/kg: Mus musculus, A375-SQ2, 336 h
Mus musculus [12] = experiment: Inhibition of ERK phosphorylation in human A375 SQ2 cells xenografted CD1 mouse at 5 mg/kg, po bid after 6 hrs; format: functional; conditions: CD1, A-375, 6 h
Mus musculus [13] = experiment: Inhibition of ERK phosphorylation in human A375 SQ2 cells xenografted CD1 mouse at 35 mg/kg, po bid after 6 hrs; format: functional; conditions: CD1, A375-SQ2, 6 h
[14] = AUC (0 to 24 hrs) in human A375 SQ2 cells xenografted po dosed CD1 mouse administered twice daily for 14 days; format: ADME, organism-based; parameters: time < 24 hr, route oral; conditions: in vivo
A-375 [15] = experiment: Antitumor activity against human A375 SQ2 cells xenografted in po dosed CD1 mouse assessed as inhibition of tumor growth administered twice daily for 14 days; format: functional; conditions: 336 h
A-375 [16] = experiment: Antitumor activity against human A375 SQ2 cells xenografted in CD1 mouse assessed as inhibition of tumor growth at 5 mg/kg, po bid for 14 days; format: functional; conditions: A375-SQ2, 336 h
A-375 [17] = experiment: Antitumor activity against human A375 SQ2 cells xenografted in CD1 mouse assessed as inhibition of tumor growth at 10 mg/kg, po bid for 14 days; format: functional; conditions: A375-SQ2, 336 h
Mus musculus [18] = experiment: Inhibition of ERK phosphorylation in human A375 SQ2 cells xenografted CD1 mouse at 10 mg/kg, po bid after 6 hrs; format: functional; conditions: CD1, A375-SQ2, 6 h
Mus musculus [19] = experiment: Inhibition of ERK phosphorylation in human A375 SQ2 cells xenografted CD1 mouse at 17.5 mg/kg, po bid after 6 hrs; format: functional; conditions: CD1, A-375, 6 h
A-375 [20] = experiment: Antitumor activity against human A375 SQ2 cells xenografted in CD1 mouse assessed as inhibition of tumor growth at 17.5 mg/kg, po bid for 14 days; format: functional; conditions: A375-SQ2, 336 h
A-375 [21] = experiment: Antitumor activity against human A375 SQ2 cells xenografted in CD1 mouse assessed as inhibition of tumor growth at 60 mg/kg, po bid for 14 days; format: functional; conditions: A375-SQ2, 336 h
Mus musculus [22] = experiment: Inhibition of ERK phosphorylation in human A375 SQ2 cells xenografted CD1 mouse at 100 mg/kg, po bid after 6 hrs; format: functional; conditions: CD1, A375-SQ2, 6 h
A-375 [23] = experiment: Antitumor activity against human A375 SQ2 cells xenografted in CD1 mouse assessed as inhibition of tumor growth at 30 mg/kg, po bid for 14 days; format: functional; conditions: A-375, 336 h
Mus musculus [24] = experiment: Inhibition of ERK phosphorylation in human A375 SQ2 cells xenografted CD1 mouse at 60 mg/kg, po bid after 6 hrs; format: functional; conditions: CD1, A375-SQ2, 6 h
Mus musculus [25] = experiment: Inhibition of ERK phosphorylation in human A375 SQ2 cells xenografted CD1 mouse at 30 mg/kg, po bid after 6 hrs; format: functional; conditions: CD1, A375-SQ2, 6 h
A-375 [26] = experiment: Antitumor activity against human A375 SQ2 cells xenografted in CD1 mouse assessed as regression of tumor growth at 100 mg/kg, po bid for 14 days; format: functional

Structure (SMILES) | Vd [1] | half-life [2] | bioavailability [3] | IC50 [4] | IC50 [5] | clearance [6] | IC50 [7] | IC50 [9] | IC50 (Angiopoietin-1 receptor) | Activity (A-375 [10]) | inhibition in vivo at 35 mg/kg (Mus musculus [13]) | ED50 (A-375 [15]) | further results
Cc1ccc(C(=O)Nc2cccc(C(F)(F)F)c2)cc1Nc1ncccc1-c1ccncn1 | 1.9 L/kg | 78 min | 16% | 12 nM | 0.46 nM | 35 mL/min/kg | 4.2 nM |  |  |  |  |  | 
C#Cc1cccc(Nc2nccc3c(Nc4ncccc4-c4cc(NC)ncn4)c(C)ccc23)c1 | 2.2 L/kg | 168 min | 76% | 450 nM |  | 12.2 mL/min/kg | 420 nM | 210 nM | 8.1 nM | 54% | 81% | 13 mg/kg | inhibition in vivo at 20 mg/kg (Mus musculus [8]): 40%; inhibition in vivo at 20 mg/kg (A-375 [11]): 78%; inhibition in vivo at 5 mg/kg (Mus musculus [12]): 5%; AUC at 24 h [14]: 9410 ng·h/mL; inhibition in vivo at 5 mg/kg (A-375 [16]): 18%
CNc1ncc2cc(-c3c(C)ccc4c(Nc5ccc6c(c5)NC(=O)C6(C)C)nccc34)ccc2n1 | 4.3 L/kg | 288 min | 55% | 51 nM | 21 nM | 10.8 mL/min/kg | 240 nM | 78 nM | > 1000 nM | 75% | 85% | 4.7 mg/kg | inhibition in vivo at 20 mg/kg (Mus musculus [8]): 82%; inhibition in vivo at 10 mg/kg (A-375 [17]): 85%; Activity (A-375 [11]): 55%; inhibition in vivo at 10 mg/kg (Mus musculus [18]): 60%
CNc1cc(-c2cccnc2Nc2c(C)ccc3c(Nc4ccc(Cl)cc4)nccc23)ncn1 | 1.7 L/kg | 282 min | 100% | > 1600 nM | 56 nM | 4.83 mL/min/kg | 300 nM | 12 nM | 24 nM |  |  |  | 
CNc1ncc2cc(-c3c(C)ccc4c(Nc5ccc(Cl)cc5)nccc34)ccc2n1 |  |  |  | > 1600 nM | 5.4 nM |  | > 25000 nM | 110 nM | > 1000 nM |  |  |  | 
CNc1cc(-c2cccnc2Nc2c(C)ccc3c(Nc4ccc5sc(C)nc5c4)nccc23)ncn1 | 0.72 L/kg | 174 min | 100% | 350 nM |  | 5.5 mL/min/kg | 170 nM | 23 nM | 5.8 nM | 24% | 66% | 11 mg/kg | inhibition in vivo at 20 mg/kg (Mus musculus [8]): 52%; inhibition in vivo at 10 mg/kg (A-375 [17]): 42%; inhibition in vivo at 20 mg/kg (A-375 [11]): 85%; AUC at 24 h [14]: 12300 ng·h/mL; inhibition in vivo at 10 mg/kg (Mus musculus [18]): 30%
CNc1ncc2cc(-c3cc(C(=O)Nc4cccc(C(F)(F)F)c4)ccc3C)ccc2n1 | 3.6 L/kg | 138 min |  | 3.5 nM | 1.7 nM | 26.7 mL/min/kg |  | 0.27 nM | 1.8 nM |  |  |  | 
Cc1ccc2c(Nc3ccc(Cl)cc3)nccc2c1Nc1ncccc1-c1ccncn1 | 2.2 L/kg | 210 min | 83% | > 1600 nM | 3.4 nM | 11.2 mL/min/kg | > 25000 nM | 280 nM | 520 nM |  |  |  | 
CNc1cc(-c2cccnc2Nc2c(C)ccc3c(Nc4ccc(C#N)cc4)nccc23)ncn1 | 0.37 L/kg | 162 min | 100% | > 1600 nM | 39 nM | 1.83 mL/min/kg | > 1000 nM | 150 nM | 400 nM | 17% | 78% | 11.5 mg/kg | inhibition in vivo at 10 mg/kg (A-375 [17]): 50%; inhibition in vivo at 17.5 mg/kg (Mus musculus [19]): 63%; AUC at 24 h [14]: 52800 ng·h/mL; inhibition in vivo at 17.5 mg/kg (A-375 [20]): 80%; inhibition in vivo at 10 mg/kg (Mus musculus [18]): 21%
CNc1ncc2cc(-c3c(C)ccc4c(Nc5cc(C(C)(C)C)nn5C)nccc34)ccc2n1 | 5.5 L/kg | 234 min | 24% | 110 nM |  | 30 mL/min/kg | 230 nM | 21 nM | 200 nM |  |  | 27 mg/kg | inhibition in vivo at 60 mg/kg (A-375 [21]): 90%; inhibition in vivo at 100 mg/kg (Mus musculus [22]): 78%; inhibition in vivo at 30 mg/kg (A-375 [23]): 60%; inhibition in vivo at 60 mg/kg (Mus musculus [24]): 67%; inhibition in vivo at 30 mg/kg (Mus musculus [25]): 50%; Activity (A-375 [26]): 45%
Cc1ccc2c(Nc3cccc(C(F)(F)F)c3)nccc2c1Nc1ncccc1-c1ccncn1 | 3.7 L/kg | 270 min | 22% | > 1600 nM | 17 nM | 20 mL/min/kg | 760 nM | 81 nM | 47 nM |  |  |  | 
